Laboratory results from PMC6993756, “Novel Anticancer Fused Pyrazole Derivatives as EGFR and VEGFR-2 Dual TK Inhibitors” (Frontiers in Chemistry, 2020).
Read-outs that look alike come from different tables or passages of the source.

Columns and labels:
EGFR = EGFR (Homo sapiens, UniProt P00533); assay: EGFR kinase inhibitory assay (BPS Bioscience EGFR kinase assay kit)
[1] = system: HEPG2 human cancer cell line; assay: MTT in vitro anticancer activity against HEPG2 cell line; format: cell-based; settings: for IC50: Homo sapiens, read-out: IC50 HEPG2; for fold higher activity than erlotinib, HEPG2: versus erlotinib (10.6 μM)
Experimental: The MTT method of monitoring in vitro cytotoxicity was used with multiwell plates. The stock concentration of the entire synthesized compounds in DMSO was 10 mM, and this was used to prepare the working dilution. The final DMSO concentration used in the experiments was ≤ 0.5% as the working concentration. Human liver cancer cell lines (HepG2) were cultured according to the manufacturer's instructions. […] The cell viability was determined in each experiment using MTT (3-(4, 5-dimethylthiazol-2-yl)-2, 5-diphenyltetrazolium bromide) colorimetric assay. The optical density was measured with a microplate reader at 540 nm. The experiment was conducted in triplicate. Data were calculated as percent of cell viability.

VEGFR-2 = VEGFR-2 (Homo sapiens, UniProt P35968); assay: VEGFR-2 kinase inhibitory assay (HTScan VEGF Receptor 2 kinase assay kit)
VEGFR-2, sequence (P35968 20-1356): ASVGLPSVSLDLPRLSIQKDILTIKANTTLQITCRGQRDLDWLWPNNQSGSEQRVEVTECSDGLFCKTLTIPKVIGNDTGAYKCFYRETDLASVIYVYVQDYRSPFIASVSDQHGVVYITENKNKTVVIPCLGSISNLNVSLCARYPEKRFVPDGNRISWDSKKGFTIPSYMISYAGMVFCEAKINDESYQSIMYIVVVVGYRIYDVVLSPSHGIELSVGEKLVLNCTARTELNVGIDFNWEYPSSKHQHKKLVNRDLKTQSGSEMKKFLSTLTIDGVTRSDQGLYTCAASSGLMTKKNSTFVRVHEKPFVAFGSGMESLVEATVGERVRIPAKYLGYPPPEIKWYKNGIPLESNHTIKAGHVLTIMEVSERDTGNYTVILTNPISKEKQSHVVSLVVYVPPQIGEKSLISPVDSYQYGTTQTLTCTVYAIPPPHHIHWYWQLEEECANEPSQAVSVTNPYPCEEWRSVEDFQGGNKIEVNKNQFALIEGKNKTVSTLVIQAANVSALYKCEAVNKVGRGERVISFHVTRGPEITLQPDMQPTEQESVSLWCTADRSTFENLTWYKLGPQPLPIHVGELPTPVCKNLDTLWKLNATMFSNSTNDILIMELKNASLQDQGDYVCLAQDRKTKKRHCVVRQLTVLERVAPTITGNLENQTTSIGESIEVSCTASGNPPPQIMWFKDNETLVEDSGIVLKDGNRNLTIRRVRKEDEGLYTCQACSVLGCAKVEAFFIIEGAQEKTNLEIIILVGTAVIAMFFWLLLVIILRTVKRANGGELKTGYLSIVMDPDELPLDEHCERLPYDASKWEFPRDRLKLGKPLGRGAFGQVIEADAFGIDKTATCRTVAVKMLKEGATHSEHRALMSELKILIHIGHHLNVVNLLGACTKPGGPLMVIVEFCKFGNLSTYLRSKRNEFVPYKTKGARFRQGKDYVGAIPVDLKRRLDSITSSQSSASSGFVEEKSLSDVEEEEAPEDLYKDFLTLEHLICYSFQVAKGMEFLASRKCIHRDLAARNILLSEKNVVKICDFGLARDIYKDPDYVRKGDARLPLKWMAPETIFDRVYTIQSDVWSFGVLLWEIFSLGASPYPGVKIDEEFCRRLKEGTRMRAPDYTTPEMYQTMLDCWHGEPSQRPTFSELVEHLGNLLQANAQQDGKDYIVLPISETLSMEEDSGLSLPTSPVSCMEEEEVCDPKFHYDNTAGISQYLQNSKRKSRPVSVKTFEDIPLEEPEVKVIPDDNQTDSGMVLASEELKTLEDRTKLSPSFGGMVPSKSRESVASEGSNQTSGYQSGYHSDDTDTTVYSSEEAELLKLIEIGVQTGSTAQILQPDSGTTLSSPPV

[2] = HepG2, MTT, 24 h treatment, mean of three experiments

EGFR, sequence (P00533 25-1210): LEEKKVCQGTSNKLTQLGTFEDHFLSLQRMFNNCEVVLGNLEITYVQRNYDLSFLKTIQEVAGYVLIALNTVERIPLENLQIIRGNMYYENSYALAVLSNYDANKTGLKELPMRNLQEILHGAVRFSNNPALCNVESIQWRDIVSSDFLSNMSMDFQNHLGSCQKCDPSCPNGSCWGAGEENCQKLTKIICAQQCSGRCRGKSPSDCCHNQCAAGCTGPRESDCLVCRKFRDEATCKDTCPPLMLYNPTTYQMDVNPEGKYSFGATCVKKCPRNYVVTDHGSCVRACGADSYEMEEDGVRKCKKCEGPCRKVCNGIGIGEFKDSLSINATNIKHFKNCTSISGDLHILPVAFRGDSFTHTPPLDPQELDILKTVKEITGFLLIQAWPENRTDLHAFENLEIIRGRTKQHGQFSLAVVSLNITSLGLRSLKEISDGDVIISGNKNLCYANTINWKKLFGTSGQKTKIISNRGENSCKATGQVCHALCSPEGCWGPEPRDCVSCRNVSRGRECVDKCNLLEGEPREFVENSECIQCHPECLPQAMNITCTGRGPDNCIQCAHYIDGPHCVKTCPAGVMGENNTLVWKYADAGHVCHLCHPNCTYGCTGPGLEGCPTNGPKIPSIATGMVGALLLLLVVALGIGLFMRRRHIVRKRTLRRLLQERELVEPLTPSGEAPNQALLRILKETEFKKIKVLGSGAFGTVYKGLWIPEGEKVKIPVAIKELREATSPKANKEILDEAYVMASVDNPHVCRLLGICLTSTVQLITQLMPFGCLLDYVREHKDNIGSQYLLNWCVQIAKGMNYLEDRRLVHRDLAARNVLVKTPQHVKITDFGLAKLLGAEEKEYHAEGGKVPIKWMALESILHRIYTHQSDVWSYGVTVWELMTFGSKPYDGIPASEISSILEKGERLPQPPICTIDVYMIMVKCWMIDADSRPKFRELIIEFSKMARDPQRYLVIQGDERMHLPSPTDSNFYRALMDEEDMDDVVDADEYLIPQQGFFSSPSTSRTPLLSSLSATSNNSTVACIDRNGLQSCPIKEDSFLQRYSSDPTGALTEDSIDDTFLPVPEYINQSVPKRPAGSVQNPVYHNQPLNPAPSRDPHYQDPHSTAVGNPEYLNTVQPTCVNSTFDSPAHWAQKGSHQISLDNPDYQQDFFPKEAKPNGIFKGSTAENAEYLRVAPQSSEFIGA

Structure (SMILES) | IC50 (EGFR) | IC50 [1, 2] | IC50 (VEGFR-2) | melting point | fold higher activity than erlotinib, HEPG2 [1] | IC50 ([1]; HepG2, 24 h)
Cc1n[nH]c2c1C(c1ccccc1Br)C(C#N)=C(NC(=S)Nc1ccccc1)O2 (centres unmarked) [Compound 8, 1-(4-(2-Bromophenyl)-5-cyano-3-methyl-1,4-dihydropyrano[2,3-c]pyrazol-6-yl)-3-phenylthiourea] | 0.23 µM | 0.38 µM | 0.46 µM | – | – | –
Cc1n[nH]c2c1C(c1ccccc1Br)c1c(N)ncnc1O2 (centres unmarked) [Compound 6, 4-(2-Bromophenyl)-3-methyl-1,4-dihydropyrazolo[4′,3′:5,6]pyrano[2,3-d]pyrimidin-5-amine] | 0.25 µM | 15.7 µM | 1.1 µM | 320 °C | – | –
Cc1n[nH]c2c1C(c1ccccc1Br)C(C#N)=C(N)O2 (centres unmarked) [Compound 1, 6-amino-4-(2-bromophenyl)-3-methyl-1,4-dihydropyrano[2,3-c]pyrazole-5-carbonitrile] | 0.14 µM | 0.42 µM | 11.4 µM | – | ~10 fold | –
Cc1n[nH]c2c1C(c1ccccc1Br)c1c(nc[nH]c1=O)O2 (centres unmarked) [Compound 5, 4-(2-Bromophenyl)-3-methyl-4,6-dihydropyrazolo [4′,3′:5,6]pyrano[2,3-d]pyrimidin-5(1H)-one] | 0.15 µM | 8.71 µM | 1.12 µM | 205 °C | – | –
CC1=NNC(=O)/C1=C/c1ccccc1Br [Compound 11, (E)-4-(2-Bromobenzylidene)-5-methyl-2,4-dihydro-3H-pyrazol-3-one] | 0.3 µM | 0.63 µM | 0.27 µM | 210 °C | ~10 fold | –
CC1=NNC2=NC(=S)NC(c3ccccc3Br)C12 (centres unmarked) [Compound 13, 4-(2-Bromophenyl)-3-methyl-1,3a,4,5-tetrahydro-6H-pyrazolo[3,4-d]pyrimidine-6-thione] | 0.12 µM | 1.81 µM | 0.75 µM | 170 °C | – | –
Cc1nc2c(c(=O)[nH]1)C(c1ccccc1Br)c1c(C)n[nH]c1O2 (centres unmarked) [Compound 4, 4-(2-Bromophenyl)-3,7-dimethyl-4,6-dihydropyrazolo[4′,3′:5,6]pyrano[2,3-d]pyrimidin-5(1H)-one] | 0.13 µM | 0.31 µM | 0.36 µM | 115 °C | ~10 fold | –
CNC(=O)c1cc(Oc2ccc(NC(=O)Nc3ccc(Cl)c(C(F)(F)F)c3)cc2)ccn1 [Sorafenib, sorafenib, reference compound] | – | 1.06 µM | – | – | – | –
Cc1n[nH]c2c1C(c1ccccc1Br)C(C#N)=C(NC(=O)CC#N)O2 (centres unmarked) [Compound 7, N-(4-(2-Bromophenyl)-5-cyano-3-methyl-1,4-dihydropyrano[2,3-c]pyrazol-6-yl)-2-cyanoacetamide] | 0.25 µM | 1.84 µM | 1.45 µM | > 360 °C | – | –
CC1=NNC2=NC(=O)NC(c3ccccc3Br)C12 (centres unmarked) [Compound 12, 4-(2-bromophenyl)-3-methyl-1,3a, 4,5-tetrahydro-6h-pyrazolo [3,4-d]pyrimidin-6-one] | 0.09 µM | 0.71 µM | 0.23 µM | 205 °C | ~10 fold | –
Cc1n[nH]c2c1C(c1ccccc1Br)c1c(ncn(N)c1=N)O2 (centres unmarked) [Compound 3, 4-(2-Bromophenyl)-5-imino-3-methyl-1,4-dihydropyrazolo[4′,3′:5,6]pyrano[2,3-d]pyrimidin-6(5H)-amine] | 0.06 µM | 4.07 µM | 0.85 µM | 120 to 122 °C | – | –
C#Cc1cccc(Nc2ncnc3cc(OCCOC)c(OCCOC)cc23)c1 [Erlotinib, erlotinib, reference compound] | – | – | – | – | – | 10.6 µM
Cc1ccc(S(=O)(=O)NC2=C(C#N)C(c3ccccc3Br)c3c(C)n[nH]c3O2)cc1 (centres unmarked) [Compound 9, N-(4-(2-Bromophenyl)-5-cyano-3-methyl-1,4-dihydropyrano[2,3-c]pyrazol-6-yl)-4-methyl-benzenesulfonamide] | 0.16 µM | 2.3 µM | 0.22 µM | 193 to 195 °C | – | –
CC1=NNC2=NNC(c3ccccc3Br)C12 (centres unmarked) [Compound 14, 4-(2-Bromophenyl)-3-methyl-1,3a,4,5-tetrahydropyrazolo[3,4-c]pyrazole] | 0.11 µM | 6.64 µM | 2.87 µM | 140 °C | – | –
CCOC=NC1=C(C#N)C(c2ccccc2Br)c2c(C)n[nH]c2O1 (centres unmarked) [Compound 2, Ethyl(E)-N-(4-(2-bromophenyl)-5-cyano-3-methyl-1,4-dihydropyrano[2,3-cpyrazol-6-yl)formimidate] | 0.49 µM | 0.35 µM | 2.12 µM | 158 to 160 °C | ~10 fold | –
Cc1n[nH]c2oc(=O)c(C#N)c(-c3ccccc3Br)c12 [Compound 15, 4-(2-Bromophenyl)-3-methyl-6-oxo-1,6-dihydropyrano[2,3-c]pyrazole-5-carbonitrile] | 0.19 µM | 0.37 µM | 0.37 µM | > 360 °C | ~10 fold | –
